Experimental data as given in ChEMBL document CHEMBL1151489, “N-(quinuclidin-3-YL)-1,8,-naphthalimides with 5-HT3 receptor antagonist and 5-HT4 receptor agonist properties” (Bioorg Med Chem Lett, 1993).

How the values were obtained:
[1] = biological target: 5-hydroxytryptamine receptor 4 (Rattus norvegicus) (UniProt Q62758); experiment: lntrinsic activity relative to 5-HT receptor; format: functional
[2] = biological target: Serotonin 3 (5-HT3) receptor (Rattus norvegicus) (UniProt P35563+Q9JJ16); experiment: In vivo 5-hydroxytryptamine 3 receptor antagonist activity by antagonism of the von Bezold-Jarisch (B-J) reflex in anesthetized rats, (i.v.); format: functional, organism-based
[3] = biological target: T1, Serotonin 3 (5-HT3) receptor (Rattus norvegicus, UniProt P35563+Q9JJ16); experiment: Binding affinity to 5-hydroxytryptamine 3 receptor was determined in rat cerebro cortical membranes using [3H]quipazine.; format: cell membranes
T1 sequence (P35563 whole entry): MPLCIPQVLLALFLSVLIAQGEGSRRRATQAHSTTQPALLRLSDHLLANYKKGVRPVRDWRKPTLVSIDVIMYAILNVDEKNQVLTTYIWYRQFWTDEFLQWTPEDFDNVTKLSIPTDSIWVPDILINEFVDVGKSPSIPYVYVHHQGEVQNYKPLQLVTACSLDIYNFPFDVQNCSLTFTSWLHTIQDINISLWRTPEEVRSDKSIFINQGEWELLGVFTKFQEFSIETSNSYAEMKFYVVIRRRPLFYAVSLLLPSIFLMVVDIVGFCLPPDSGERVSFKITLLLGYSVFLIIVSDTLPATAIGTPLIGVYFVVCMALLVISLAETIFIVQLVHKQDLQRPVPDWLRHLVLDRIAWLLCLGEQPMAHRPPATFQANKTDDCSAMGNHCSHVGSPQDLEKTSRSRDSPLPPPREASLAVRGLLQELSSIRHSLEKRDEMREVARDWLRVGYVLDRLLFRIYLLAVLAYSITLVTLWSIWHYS
T1 sequence (Q9JJ16 whole entry): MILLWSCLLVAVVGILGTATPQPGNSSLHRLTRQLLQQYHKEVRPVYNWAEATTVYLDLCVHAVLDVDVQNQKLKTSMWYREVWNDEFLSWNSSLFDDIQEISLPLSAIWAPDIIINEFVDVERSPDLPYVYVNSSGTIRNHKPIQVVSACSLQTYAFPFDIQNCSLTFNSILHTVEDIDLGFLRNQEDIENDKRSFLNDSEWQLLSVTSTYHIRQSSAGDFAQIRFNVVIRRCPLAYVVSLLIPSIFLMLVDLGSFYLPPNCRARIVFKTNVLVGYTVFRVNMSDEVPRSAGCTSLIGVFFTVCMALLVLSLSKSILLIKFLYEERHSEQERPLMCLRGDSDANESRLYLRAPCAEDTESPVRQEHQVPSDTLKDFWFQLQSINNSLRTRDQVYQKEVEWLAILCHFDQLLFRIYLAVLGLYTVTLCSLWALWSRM

[4] = biological target: 5-hydroxytryptamine receptor 4 (Rattus norvegicus, UniProt Q62758); experiment: 5-hydroxytryptamine 4 receptor agonist activity in the rat esophageal muscularis mucosae; format: functional
Chain of 5-hydroxytryptamine receptor 4 (Q62758 whole entry): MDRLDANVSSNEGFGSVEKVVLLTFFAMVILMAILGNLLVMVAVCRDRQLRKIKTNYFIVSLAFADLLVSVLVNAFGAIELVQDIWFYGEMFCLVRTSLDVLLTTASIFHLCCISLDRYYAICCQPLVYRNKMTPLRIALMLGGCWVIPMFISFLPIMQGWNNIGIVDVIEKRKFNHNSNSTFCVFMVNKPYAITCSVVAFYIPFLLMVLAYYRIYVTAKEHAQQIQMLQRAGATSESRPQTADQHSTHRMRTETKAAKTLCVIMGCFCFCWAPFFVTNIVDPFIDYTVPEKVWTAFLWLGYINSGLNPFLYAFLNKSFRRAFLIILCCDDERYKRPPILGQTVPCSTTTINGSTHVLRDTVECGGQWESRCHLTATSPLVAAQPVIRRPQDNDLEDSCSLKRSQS

Chain of 5-hydroxytryptamine receptor 4 (Rattus norvegicus) (Q62758 whole entry): as above

## NCCc1c[nH]c2ccc(O)cc12
[1]
  Activity: 1

## Nc1c(Cl)cc2c3c(cccc13)C(=O)N([C@@H]1CN3CCC1CC3)C2=O
[2]
  Inhibitory dose (ID50): 77 µg/kg
[1]
  Activity: 0.8
[3]
  Ki: 10 nM
[4]
  EC50: 12.6 nM

## CN1CCC(N2C(=O)c3cccc4c(N)c(Cl)cc(c34)C2=O)CC1
[2]
  Inhibitory dose (ID50): 288 µg/kg
[1]
  Activity: 0.9
[3]
  Ki: 39.8 nM
[4]
  EC50: 31.6 nM

## COc1cc(N)c(Cl)cc1C(=O)N[C@H]1CN2CCC1CC2 [(R)ZACOPRIDE]
[1]
  Activity: 0.9
[4]
  EC50: 501 nM

## COc1cc(N)c(Cl)cc1C(=O)N[C@@H]1CN2CCC1CC2
[1]
  Activity: 0.9
[4]
  EC50: 63.1 nM

## Nc1c(Cl)cc2c3c(cccc13)C(=O)N([C@H]1CN3CCC1CC3)C2=O
[2]
  Inhibitory dose (ID50): 4.5 µg/kg
[3]
  Ki: 0.794 nM
[4]
  EC50: > 1000 nM
